Measurements taken from US12358921B2, “Antiviral heterocyclic compounds” (priority 2022, dated 2025).

How the values were obtained:
Assay type in all cases: cell-based
hMPV A2 TN/94-49 [1] = experiment: HMPV antiviral assay Method 1 (LLC-MK2 cells, ATP-Lite); conditions: hMPV A2 TN/94-49, LLC-MK2 cells
In short: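 LLC-MK2 cells infected in suspension with hMPV A2 TN/94-49 at MOI 0.005, 5,000 cells/well, in serum-free OptiMEM with 2 μg/mL TPCK-trypsin (final) and CaCl2; compounds in duplicate, 10 points, 2 μM top, 2.5-fold dilutions. After 7 days at 37 °C, cell health by ATP-Lite luminescence; EC50 by four-parameter fit.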

[2] = test system: HUMAN RSV-A (“LONG” STRAIN); experiment: RSV-A assay (CPE, ATPlite) in Hep-2 cells; conditions: human respiratory syncytial virus, 120 h, MOI 0.1, 5-day incubation
In short: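 Hep-2 cells (8,000/well) given 2-fold serial compound dilutions in duplicate, then infected with RSV-A Long strain at MOI 0.1. After 5 days, virus-induced cytopathic effect quantified as cellular ATP by ATPlite luminescence, against virus-only and uninfected controls; EC50 reported in ranges.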

hMPV A2 TN/94-49 [3] = experiment: HMPV antiviral assay Method 2 (LLC-MK2 cells with CP-100-356, ATP-Lite); conditions: hMPV A2 TN/94-49, LLC-MK2 cells, 4 μM CP-100-356, Method 2
In short: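 LLC-MK2 cells infected in suspension with hMPV A2 TN/94-49 at MOI 0.16, in serum-free OptiMEM with final 2 μg/mL TPCK-trypsin and 2 μM CP-100-356 (P-gp inhibitor). Compounds tested in duplicate, top 200 nM, 2.5-fold, 10 points; 7 days at 37 °C. ATP-Lite cell health normalised to controls; EC50 by four-parameter fit.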

Structure (SMILES) | EC50 (hMPV A2 TN/94-49 [1]) | EC50 [2] | EC50 (hMPV A2 TN/94-49 [3])
COc1ccc([C@](O)(CNC(=O)c2cc(OC)c3nn(C4CC4)cc3c2)c2cc3c(c(-c4cc(Cl)c(F)cc4F)n2)OC[C@]3(C)C(N)=O)cc1 [Example 165] | < 500 nM | < 200 nM | < 200 nM
COc1ccc([C@](O)(CNC(=O)c2cc(OC)c3nn(C4(F)CC4)cc3c2)c2cc3c(c(-c4cc(Cl)c(F)cc4F)n2)OC[C@]3(C)C(N)=O)cc1 [Example 166] | < 500 nM | < 200 nM | < 200 nM
COc1cc(C(=O)NC[C@@](O)(c2ccccc2)c2cc3c(c(-c4cc(F)c(F)cc4F)n2)OC[C@]3(C)C(N)=O)cc2cn(C3(F)CC3)nc12 [Example 170] | < 500 nM | < 200 nM | < 200 nM
COc1cc(C(=O)NC[C@@](O)(c2ccccc2)c2cc3c(c(-c4cc(F)c(F)cc4F)n2)OC[C@]3(C)C(N)=O)cc2cn(C3CC3)nc12 [Example 171] | < 500 nM | < 200 nM | < 200 nM
COc1cc(C(=O)NC[C@@](O)(c2ccccc2)c2cc3c(c(-c4cc(F)c(F)cc4F)n2)OC[C@]3(C)C(N)=O)cc2cn(C(F)F)nc12 [Example 172] | < 500 nM | < 200 nM | < 200 nM
COc1cc(C(=O)NC[C@@](O)(c2ccsc2)c2cc3c(c(-c4cc(F)c(F)cc4F)n2)OC[C@]3(C)C(N)=O)cc2cn(C3(F)CC3)nc12 [Example 179] | < 500 nM | < 200 nM | < 200 nM
Cc1cnc2c(OC3CC3)cc(C(=O)NC[C@@](O)(c3ccccc3)c3cc4c(c(-c5cc(Cl)c(F)cc5F)n3)OC[C@]4(C)C(N)=O)cc2c1 [Example 182] | < 500 nM | < 200 nM | < 200 nM
Cc1cnc2c(OC(F)F)cc(C(=O)NC[C@@](O)(c3ccccc3)c3cc4c(c(-c5cc(Cl)c(F)cc5F)n3)OC[C@]4(C)C(N)=O)cc2c1 [Example 183] | < 500 nM | < 200 nM | < 200 nM
COc1cc(C(=O)NC[C@@](O)(c2ccccc2)c2cc3c(c(-c4cc(Cl)c(F)cc4F)n2)OC[C@]3(C)C(N)=O)cc2cc(Br)cnc12 [Example 185] | < 500 nM | < 200 nM | < 200 nM
COc1cc(C(=O)NC[C@@](O)(c2ccccc2)c2cc3c(c(-c4cc(Cl)c(F)cc4F)n2)OC[C@]3(C)C(N)=O)cc2cc(C(F)F)nnc12 [Example 186] | > 500 nM | < 200 nM | < 200 nM
COc1cc(C(=O)NC[C@@](O)(c2ccccc2)c2cc3c(c(-c4cc(Cl)c(F)cc4F)n2)OC[C@]3(C)C(N)=O)cc2cc(Cl)cnc12 [Example 187] | < 500 nM | < 200 nM | < 200 nM
COc1cc(C(=O)NC[C@@](O)(c2ccccc2)c2cc3c(c(-c4ccc(F)c(F)c4Cl)n2)OC[C@]3(C)C(N)=O)cc2cn(C(F)F)nc12 [Example 213] | < 500 nM | < 200 nM | < 200 nM
COc1cc(C(=O)NC[C@@](O)(c2ccccc2)c2cc3c(c(-c4ccc(F)c(Cl)c4Cl)n2)OC[C@]3(C)C(N)=O)cc2cn(C(F)F)nc12 [Example 258] | < 500 nM | < 200 nM | < 200 nM
COc1cc(C(=O)NC[C@@](O)(c2ccccc2)c2cc3c(c(-c4ccc(F)c(Cl)c4Cl)n2)OC[C@]3(C)C(N)=O)cc2cn(C3(F)CC3)nc12 [Example 259] | < 500 nM | < 200 nM | < 200 nM
COc1cc(C(=O)NC[C@@](O)(c2ccccc2)c2cc3c(c(-c4cccc(Cl)c4Cl)n2)OC[C@]3(C)C(N)=O)cc2cn(C3CC3)nc12 [Example 260] | < 500 nM | < 200 nM | < 200 nM
COc1cc(C(=O)NC[C@@](O)(c2ccccc2)c2cc3c(c(-c4cccc(Cl)c4Cl)n2)OC[C@]3(C)C(N)=O)cc2cn(C3(F)CC3)nc12 [Example 262] | < 500 nM | < 200 nM | < 200 nM
COc1cc(C(=O)NC[C@@](O)(c2ccc(F)cc2)c2cc3c(c(-c4ccc5c(c4Cl)OC(F)(F)O5)n2)OC[C@]3(C)C(N)=O)cc2cn(C3(F)CC3)nc12 [Example 263] | < 500 nM | < 200 nM | < 200 nM
COc1cc(C(=O)NC[C@@](O)(c2ccc(F)cc2)c2cc3c(c(-c4ccc5c(c4Cl)OC(F)(F)O5)n2)OC[C@]3(C)C(N)=O)cc2cn(C(F)F)nc12 [Example 264] | < 500 nM | < 200 nM | < 200 nM
C[C@]1(C(N)=O)COc2c1cc([C@@](O)(CNC(=O)c1cc(OC3CC3)c3nn(C(F)F)cc3c1)c1ccc(F)cc1)nc2-c1ccc2c(c1Cl)OC(F)(F)O2 [Example 265] | < 500 nM | < 200 nM | < 200 nM

Structure (SMILES) | EC50 (hMPV A2 TN/94-49 [1]) | EC50 [2] | EC50 (hMPV A2 TN/94-49 [3])
C[C@]1(C(N)=O)COc2c1cc([C@@](O)(CNC(=O)c1cc(OC3CC3)c3nn(C4(F)CC4)cc3c1)c1ccccc1)nc2-c1cccc(Cl)c1Cl [Example 266] | < 500 nM | < 200 nM | < 200 nM
COc1cc(C(=O)NC[C@@](O)(c2cccc(F)c2)c2cc3c(c(-c4ccc(F)c(Cl)c4Cl)n2)OC[C@]3(C)C(N)=O)cc2cn(C3CC3)nc12 [Example 268] | < 500 nM | < 200 nM | < 200 nM
COc1cc(C(=O)NC[C@@](O)(c2cccc(F)c2)c2cc3c(c(-c4ccc(F)c(Cl)c4Cl)n2)OC[C@]3(C)C(N)=O)cc2cn(C3(F)CC3)nc12 [Example 269] | < 500 nM | < 200 nM | < 200 nM
COc1cc(C(=O)NC[C@@](O)(c2cccc(F)c2)c2cc3c(c(-c4ccc(F)c(Cl)c4Cl)n2)OC[C@]3(C)C(N)=O)cc2cn(C(F)F)nc12 [Example 270] | < 500 nM | < 200 nM | < 200 nM
Cc1nc2c(OC3CC3)cc(C(=O)NC[C@@](O)(c3ccccc3)c3cc4c(c(-c5ccc(F)c(Cl)c5Cl)n3)OC[C@]4(C)C(N)=O)cc2o1 [Example 271] | < 500 nM | < 200 nM | < 200 nM
COc1cc(C(=O)NC[C@@](O)(c2cccc(F)c2)c2cc3c(c(-c4ccc5c(c4Cl)OC(F)(F)O5)n2)OC[C@]3(C)C(N)=O)cc2cn(C3(F)CC3)nc12 [Example 275] | < 500 nM | < 200 nM | < 200 nM
COc1cc(C(=O)NC[C@@](O)(c2cccc(F)c2)c2cc3c(c(-c4ccc5c(c4Cl)OC(F)(F)O5)n2)OC[C@]3(C)C(N)=O)cc2cn(C(F)F)nc12 [Example 276] | < 500 nM | < 200 nM | < 200 nM
COc1cc(C(=O)NC[C@@](O)(c2ccccc2)c2cc3c(c(-c4ccc(F)c(Cl)c4Cl)n2)OC[C@]3(C)C(N)=O)cc2oc(C)nc12 [Example 277] | < 500 nM | < 200 nM | < 200 nM
COc1cc(C(=O)NC[C@@](O)(c2ccccc2)c2cc3c(c(-c4ccc(F)c(Cl)c4Cl)n2)OC[C@]3(C)C(N)=O)cc2oc(C3CC3)nc12 [Example 278] | < 500 nM | < 200 nM | < 200 nM
COc1cc(C(=O)NC[C@@](O)(c2cccc(F)c2)c2cc3c(c(-c4ccc(F)c(Cl)c4Cl)n2)OC[C@]3(C)C(N)=O)cc2oc(C3CC3)nc12 [Example 280] | < 500 nM | < 200 nM | < 200 nM
[2H]C([2H])([2H])c1nc2ccc(C(=O)NC[C@@](O)(c3cccc(F)c3)c3cc4c(c(-c5ccc(F)c(Cl)c5Cl)n3)OC[C@]4(C)C(N)=O)cc2o1 [Example 281] | < 500 nM | < 200 nM | < 200 nM
[2H]C([2H])([2H])c1nc2ccc(C(=O)NC[C@@](O)(c3cccc(F)c3)c3cc4c(c(-c5ccc6c(c5Cl)OC(F)(F)O6)n3)OC[C@]4(C)C(N)=O)cc2o1 [Example 282] | < 500 nM | < 200 nM | < 200 nM
C[C@]1(C(N)=O)COc2c1cc([C@@](O)(CNC(=O)c1ccc3nc(C4CC4)oc3c1)c1cccc(F)c1)nc2-c1ccc2c(c1Cl)OC(F)(F)O2 [Example 287] | < 500 nM | < 200 nM | < 200 nM
COc1cc(C(=O)NC[C@@](O)(c2ccccc2)c2cc3c(c(-c4ccc(F)c(Cl)c4Cl)n2)OC[C@]3(C)C(N)=O)cc2cc(C)nnc12 [Example 289] | < 500 nM | < 200 nM | < 200 nM
COc1cc(C(=O)NC[C@@](O)(c2ccccc2)c2cc3c(c(-c4ccc(F)c(Cl)c4Cl)n2)OC[C@]3(C)C(N)=O)cc2cc(C3CC3)nnc12 [Example 290] | < 500 nM | < 200 nM | < 200 nM
COc1cc(C(=O)NC[C@@](O)(c2cccc(F)c2)c2cc3c(c(-c4cccc(Cl)c4Cl)n2)OC[C@]3(C)C(N)=O)cc2cn(C3(F)CC3)nc12 [Example 291] | < 500 nM | < 200 nM | < 200 nM
COc1cc(C(=O)NC[C@@](O)(c2cccc(F)c2)c2cc3c(c(-c4cccc(Cl)c4Cl)n2)OC[C@]3(C)C(N)=O)cc2oc(C3CC3)nc12 [Example 292] | < 500 nM | < 200 nM | < 200 nM
COc1cc(C(=O)NC[C@@](O)(c2cccc(F)c2)c2cc3c(c(-c4cccc(Cl)c4Cl)n2)OC[C@]3(C)C(N)=O)cc2oc(C)nc12 [Example 293] | < 500 nM | < 200 nM | < 200 nM
COc1cc(C(=O)NC[C@@](O)(c2ccccc2)c2cc3c(c(-c4ccc(F)c(Cl)c4Cl)n2)OC[C@]3(C)C(N)=O)cc2cc(Cl)cnc12 [Example 294] | < 500 nM | < 200 nM | < 200 nM
